The source of these data is US20170057954A1, “SUBSTITUTED IMIDAZO[1,2-A]PYRIDINECARBOXAMIDES AND THEIR USE” (Bayer Pharma Aktiengesellschaft, priority 2014, published 2017).

This assay relates to recombinant guanylate cyclase reporter cell line. Briefly: Effect on a recombinant guanylate cyclase reporter cell line. It counts as cell-based. The conditions noted are these: in some cases mean values for individual determinations, read-out: MEC (minimum effective concentration). As to the method:
B-2. Effect on a Recombinant Guanylate Cyclase Reporter Cell Line
The cellular activity of the compounds according to the invention is determined using a recombinant guanylate cyclase reporter cell line, as described in F. Wunder et al., Anal. Biochem. 339, 104-112 (2005).
Representative MEC values (MEC=minimum effective concentration) for the compounds of the invention are shown in the table below (in some cases as mean values for individual determinations): […]
Regarding `Cc1cc(OCc2c(F)cccc2F)c2nc(C)c(C(=O)NNCC(C)C)n2c1` [Example 27, 8-[(2,6-Difluorobenzyl)oxy]-N′-isobutyl-2,6-dimethylimidazo[1,2-a]pyridine-3-carbohydrazide], the minimal effective concentration was found to be 0.3 µM.

On to `Cc1cc(OCc2c(F)cccc2F)c2nc(C)c(C(=O)NOCC(=O)N3CCN(c4ccccc4)CC3)n2c1` [Example 5], for which the minimal effective concentration turned out to be 10 µM.

For `Cc1cc(OCc2c(F)cccc2F)c2nc(C)c(C(=O)NOCC(N)C(C)C)n2c1` (stereo not shown) [Example 9], the minimal effective concentration was determined as 1 µM.

For `Cc1cc(OCc2c(F)cccc2F)c2nc(C)c(C(=O)NNCCc3ccccc3)n2c1` [Example 49], the minimal effective concentration came to 1 µM.

As to `Cc1cc(OCc2c(F)cccc2F)c2nc(C)c(C(=O)NNc3ccccn3)n2c1` [Example 40], the minimal effective concentration is 0.3 µM.

With `Cc1cc(OCc2c(F)cccc2F)c2nc(C)c(C(=O)NNC3CS(=O)(=O)CC3O)n2c1` (stereo not shown) [Example 73], the minimal effective concentration was determined as 3 µM.

Regarding `COc1cc(OC)nc(NNC(=O)c2c(C)nc3c(OCc4c(F)cccc4F)cc(C)cn23)n1` [Example 43], the minimal effective concentration turned out to be 0.3 µM.

With `CCOC(=O)CNNC(=O)c1c(C)nc2c(OCc3c(F)cccc3F)cc(C)cn12` [Example 68], the minimal effective concentration came out at 1 µM.

Turning to `Cc1cc(OCc2c(F)cccc2F)c2nc(C)c(C(=O)NNC(=O)c3nccs3)n2c1` [Example 50], the minimal effective concentration worked out at 1 µM.

In the case of `Cc1cc(OCc2c(F)ccc(F)c2F)c2nc(C)c(C(=O)NN3CCOCC3)n2c1` [Example 12, 2,6-Dimethyl-N-(morpholin-4-yl)-8-[(2,3,6-trifluorobenzyl)oxy]imidazo[1,2-a]pyridine-3-carboxamide], the minimal effective concentration amounted to 1 µM.

Take `Cc1cc(OCc2c(F)cccc2F)c2nc(C)c(C(=O)NNC3CCCC3)n2c1` [Example 64]: the minimal effective concentration is 3 µM.

As for `Cc1cc(OCc2c(F)cccc2F)c2nc(C)c(C(=O)NNC3CCS(=O)(=O)CC3)n2c1` [Example 80, 8-[(2,6-Difluorobenzyl)oxy]-N′-(1,1-dioxidotetrahydro-2H-thiopyran-4-yl)-2,6-dimethylimidazo[1,2-a]pyridine-3-carbohydrazide], the minimal effective concentration is 2 µM.

Regarding `Cc1cc(OCc2c(F)cccc2F)c2nc(C)c(C(=O)NNC3CCS(=O)(=O)C3)n2c1` (stereo not shown) [Example 71], the minimal effective concentration amounted to 1 µM.

Regarding `Cc1cc(OCc2c(F)cccc2F)c2nc(C)c(C(=O)NNc3cccc(Br)c3)n2c1` [Example 54], the minimal effective concentration amounted to 0.3 µM.

For the compound `Cc1cc(OCc2c(F)ccc(C3CC3)c2F)c2nc(C)c(C(=O)NN3CCOCC3)n2c1` [Example 26], the minimal effective concentration came out at 10 µM.

Consider `Cc1cc(OCc2c(F)cccc2F)c2nc(C)c(C(=O)NN(C)c3ccccc3)n2c1` [Example 51], for which the minimal effective concentration was 0.1 µM.
